This is an account of results in ChEMBL document CHEMBL4190315, “Novel cinnamamide-dibenzylamine hybrids: Potent neurogenic agents with antioxidant, cholinergic, and neuroprotective properties as innovative drugs for Alzheimer's disease” (Eur J Med Chem, 2017).

Molecules are shown by their SMILES. The source made the active and inactive calls. The calls are words filed in the database; no cut-off is given here.

The target of series [1] is Acetylcholinesterase (Electrophorus electricus) (UniProt O42275). The series is described as follows: Inhibition of electric eel AChE at 0.001 to 100 uM using acetylthiocholine iodide as substrate preincubated for 5 mins followed by substrate addition measured up to 180 secs by spectrophotometric analysis relative to control.
Acetylcholinesterase (Electrophorus electricus), sequence (O42275 24-633 limits assumed): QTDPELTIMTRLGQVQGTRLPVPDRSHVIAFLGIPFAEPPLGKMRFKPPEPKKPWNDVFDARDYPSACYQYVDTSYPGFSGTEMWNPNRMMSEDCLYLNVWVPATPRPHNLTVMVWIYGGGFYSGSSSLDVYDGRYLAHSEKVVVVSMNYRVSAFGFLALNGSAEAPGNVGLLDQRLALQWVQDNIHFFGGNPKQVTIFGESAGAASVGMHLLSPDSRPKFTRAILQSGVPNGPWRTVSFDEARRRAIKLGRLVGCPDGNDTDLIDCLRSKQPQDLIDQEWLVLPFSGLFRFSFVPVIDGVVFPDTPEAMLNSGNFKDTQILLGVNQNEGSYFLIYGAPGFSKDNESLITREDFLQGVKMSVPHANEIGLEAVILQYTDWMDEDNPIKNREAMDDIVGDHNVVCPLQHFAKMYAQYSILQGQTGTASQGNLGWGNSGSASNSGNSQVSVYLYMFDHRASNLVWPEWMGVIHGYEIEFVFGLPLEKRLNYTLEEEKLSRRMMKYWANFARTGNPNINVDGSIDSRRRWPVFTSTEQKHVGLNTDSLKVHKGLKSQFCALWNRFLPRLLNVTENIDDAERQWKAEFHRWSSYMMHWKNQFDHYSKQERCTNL
Series [2] is described as follows: Antioxidant activity assessed as inhibition of AAPH-induced peroxyl radical generation measured as trolox equivalent preincubated for 15 mins followed by AAPH addition measured every min for 120 mins by ORAC-FL assay. The series is classed as functional.
Series [3] addresses Amyloid-beta precursor protein (Homo sapiens) (UniProt P05067). The series is described as follows: Inhibition of HFIP pretreated amyloid beta (1 to 42) (unknown origin) self-aggregation at 20 uM after 48 hrs by thioflavin T fluorescence assay relative to control.
Series [4] concerns the target Cholinesterase (Equus caballus) (UniProt P81908). The series is described as follows: Inhibition of equine serum BChE at 0.001 to 100 uM using S-butyrylthiocholine iodide as substrate preincubated for 5 mins followed by substrate addition measured up to 180 secs by spectrophotometric analysis relative to control.
For series [5], the system named is PC-12. The series is described as follows: Neuroprotective activity against H2O2-induced oxidative damage in rat PC12 cells assessed as increase in cell viability at 25 uM preincubated for 2 hrs followed by H2O2 challenge measured after 24 hrs by MTT assay. Type of series: functional, cell-based.
The nature of series [6]: Copper-chelating activity assessed as minimum absorption at 25 uM after 30 mins by UV-vis spectrophotometric method (reference value: 260 nanometer).
A short description of series [7]: Inhibition of Cu2+-mediated aggregation of amyloid beta (1 to 42) (unknown origin) assessed as reduction in fibril formation at 50 uM after 24 hrs by transmission electron microscopic analysis.
Series [8] deals with PC-12. Put plainly: Cytotoxicity against rat PC12 cells at 1.25 to 50 uM after 24 hrs by MTT assay. The series is classed as cell-based. Particulars: pc-12, 24 h. For orientation: Formazan colour is commonly taken as a measure of viable cells.
The test system of series [9] is PC-12. Put plainly: Neuroprotective activity against H2O2-induced oxidative damage in rat PC12 cells assessed as increase in cell viability at 1.25 to 25 uM preincubated for 2 hrs followed by H2O2 challenge measured after 24 hrs by MTT assay. Type of series: functional, cell-based.
Series [10] can be described thus: Effective permeability of compound at 50 ug/mL after 16 hrs by PAMPA-BBB assay. A general note: In PAMPA a lipid-coated filter parts donor from acceptor wells.
Series [11] is described as follows: Inhibition of Cu2+-mediated aggregation of amyloid beta (1 to 42) (unknown origin) at 50 uM after 24 hrs by thioflavin T fluorescence assay relative to control.
The target in series [12] is Cholinesterase (Equus caballus, UniProt P81908). Put plainly: Inhibition of equine serum BChE using S-butyrylthiocholine iodide as substrate preincubated for 5 mins followed by substrate addition measured up to 180 secs by spectrophotometric analysis.
Cholinesterase (Equus caballus, UniProt P81908), sequence (P81908 whole entry): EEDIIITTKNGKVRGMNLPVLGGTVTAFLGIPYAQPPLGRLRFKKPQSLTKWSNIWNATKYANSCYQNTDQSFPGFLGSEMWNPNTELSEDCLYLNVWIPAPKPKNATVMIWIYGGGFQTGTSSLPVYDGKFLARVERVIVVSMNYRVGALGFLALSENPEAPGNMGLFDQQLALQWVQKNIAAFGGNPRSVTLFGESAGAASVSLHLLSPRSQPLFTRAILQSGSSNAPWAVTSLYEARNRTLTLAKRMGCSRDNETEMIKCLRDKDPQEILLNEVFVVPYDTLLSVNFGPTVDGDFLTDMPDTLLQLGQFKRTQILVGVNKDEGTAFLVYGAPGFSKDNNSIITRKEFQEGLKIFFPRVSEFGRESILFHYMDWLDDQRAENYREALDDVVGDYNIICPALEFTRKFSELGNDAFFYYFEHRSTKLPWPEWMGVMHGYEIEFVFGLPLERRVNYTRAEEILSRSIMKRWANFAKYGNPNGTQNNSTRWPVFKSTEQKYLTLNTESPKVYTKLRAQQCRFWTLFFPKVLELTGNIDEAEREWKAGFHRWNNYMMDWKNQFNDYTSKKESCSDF
Series [13] is described as follows: Metal chelating activity assessed as Zn2+-compound complex formation at 25 uM after 30 mins by UV-vis spectrophotometric method.
A short description of series [14]: Metal chelating activity assessed as mole fraction of compound required to show 1:2 stoichiometry for Cu2+-compound complex at 25 uM after 30 mins by Job's plot analysis.
The subject of series [15] is Mus musculus. The series is described as follows: Reversal of scopolamine-induced memory impairment in Kunming mouse assessed as increase in step-down latency time at 5 to 15 mg/kg, po administered 60 mins prior to training trial followed by scopolamine challenge at 30 mins post dose measured 24 hrs after training trial by passive avoidance test. The series is classed as functional, organism-based.

The target in series [16] is Cholinesterase (Homo sapiens, UniProt P06276). The series is described as follows: Inhibition of human serum BChE using S-butyrylthiocholine iodide as substrate preincubated for 5 mins followed by substrate addition measured up to 180 secs by spectrophotometric analysis.
Cholinesterase (Homo sapiens, UniProt P06276), sequence (P06276 whole entry): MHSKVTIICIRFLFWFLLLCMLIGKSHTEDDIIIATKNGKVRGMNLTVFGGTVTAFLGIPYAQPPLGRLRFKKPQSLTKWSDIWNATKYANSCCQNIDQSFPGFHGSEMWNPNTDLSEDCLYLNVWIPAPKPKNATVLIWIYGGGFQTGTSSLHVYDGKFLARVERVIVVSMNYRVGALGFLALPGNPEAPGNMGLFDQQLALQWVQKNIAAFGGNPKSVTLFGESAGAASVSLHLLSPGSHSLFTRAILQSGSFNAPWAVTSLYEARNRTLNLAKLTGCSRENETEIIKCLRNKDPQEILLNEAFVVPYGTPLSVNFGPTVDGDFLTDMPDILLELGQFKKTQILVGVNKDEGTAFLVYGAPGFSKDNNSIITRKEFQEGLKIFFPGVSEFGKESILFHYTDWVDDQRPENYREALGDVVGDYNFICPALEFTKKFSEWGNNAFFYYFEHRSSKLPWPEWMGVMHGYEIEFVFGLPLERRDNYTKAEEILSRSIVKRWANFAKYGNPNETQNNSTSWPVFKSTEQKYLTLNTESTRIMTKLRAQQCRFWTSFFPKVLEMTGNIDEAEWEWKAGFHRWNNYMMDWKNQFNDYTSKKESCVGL
The target in series [17] is Acetylcholinesterase (Electrophorus electricus, UniProt O42275). The series is described as follows: Inhibition of electric eel AChE using acetylthiocholine iodide as substrate preincubated for 5 mins followed by substrate addition measured up to 180 secs by spectrophotometric analysis.
Acetylcholinesterase (Electrophorus electricus, UniProt O42275), sequence (O42275 whole entry): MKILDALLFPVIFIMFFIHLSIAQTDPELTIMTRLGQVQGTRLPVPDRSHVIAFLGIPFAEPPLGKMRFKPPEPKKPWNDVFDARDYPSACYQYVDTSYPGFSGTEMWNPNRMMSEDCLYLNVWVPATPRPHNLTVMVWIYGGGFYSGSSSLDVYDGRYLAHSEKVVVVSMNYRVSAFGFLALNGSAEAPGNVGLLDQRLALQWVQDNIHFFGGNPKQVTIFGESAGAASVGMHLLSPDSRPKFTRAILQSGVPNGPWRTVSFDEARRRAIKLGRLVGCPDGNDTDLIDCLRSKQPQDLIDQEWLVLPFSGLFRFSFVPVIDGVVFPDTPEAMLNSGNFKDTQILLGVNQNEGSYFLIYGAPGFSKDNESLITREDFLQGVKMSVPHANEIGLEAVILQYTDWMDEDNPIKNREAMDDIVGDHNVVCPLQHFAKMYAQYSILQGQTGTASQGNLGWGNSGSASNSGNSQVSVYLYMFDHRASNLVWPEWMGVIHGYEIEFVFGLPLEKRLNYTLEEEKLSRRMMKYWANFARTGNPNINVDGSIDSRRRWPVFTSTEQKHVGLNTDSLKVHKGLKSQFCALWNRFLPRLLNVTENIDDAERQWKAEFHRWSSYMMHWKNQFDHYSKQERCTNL
Series [18] is described as follows: Selectivity index, ratio of IC50 for equine serum BChE to IC50 for electric eel AChE.
Series [19] in a line: Copper-chelating activity assessed as red shift by measuring maximum absorption at 25 uM after 30 mins by UV-vis spectrophotometric method (reference value: 230 nanometer).
For series [20], the target named is T1, Acetylcholinesterase (Homo sapiens, UniProt P22303). The series is described as follows: Mixed-type inhibition of AChE (unknown origin) at 2.25 to 9 uM using acetylthiocholine iodide as substrate preincubated for 5 mins followed by substrate addition measured up to 180 secs by Lineweaver-Burk plot analysis.
T1 sequence (P22303 whole entry): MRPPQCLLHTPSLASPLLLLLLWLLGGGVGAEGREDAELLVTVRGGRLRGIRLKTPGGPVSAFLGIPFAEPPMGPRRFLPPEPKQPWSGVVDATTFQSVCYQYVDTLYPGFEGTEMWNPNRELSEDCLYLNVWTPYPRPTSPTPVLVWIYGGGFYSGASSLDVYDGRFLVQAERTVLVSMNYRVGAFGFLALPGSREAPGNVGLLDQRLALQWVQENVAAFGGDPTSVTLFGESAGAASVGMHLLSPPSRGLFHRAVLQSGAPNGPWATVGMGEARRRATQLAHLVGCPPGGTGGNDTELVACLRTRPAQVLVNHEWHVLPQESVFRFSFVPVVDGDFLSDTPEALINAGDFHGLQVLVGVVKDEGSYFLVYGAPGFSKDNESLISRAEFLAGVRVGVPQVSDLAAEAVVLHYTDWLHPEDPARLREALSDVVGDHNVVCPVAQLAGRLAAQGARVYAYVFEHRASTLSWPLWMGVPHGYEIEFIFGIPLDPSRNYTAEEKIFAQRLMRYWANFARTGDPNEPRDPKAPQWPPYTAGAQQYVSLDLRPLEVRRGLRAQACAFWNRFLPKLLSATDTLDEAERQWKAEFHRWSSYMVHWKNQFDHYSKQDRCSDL
For series [21], the system named is Mus musculus. Put plainly: Reversal of scopolamine-induced memory impairment in Kunming mouse assessed as increase in step-down latency time at 5 mg/kg, po administered 60 mins prior to training trial followed by scopolamine challenge at 30 mins post dose measured 24 hrs after training trial by passive avoidance test. Type of series: functional, organism-based.

Series [22] in a line: Metal chelating activity assessed as Fe2+-compound complex formation at 25 uM after 30 mins by UV-vis spectrophotometric method.
Series [23] can be described thus: Metal chelating activity assessed as Fe3+-compound complex formation at 25 uM after 30 mins by UV-vis spectrophotometric method.
The target of series [24] is T1, Acetylcholinesterase. Put plainly: Inhibition of human erythrocytic AChE using acetylthiocholine iodide as substrate preincubated for 5 mins followed by substrate addition measured up to 180 secs by spectrophotometric analysis.

Amyloid-beta precursor protein (Homo sapiens), sequence (P05067 whole entry): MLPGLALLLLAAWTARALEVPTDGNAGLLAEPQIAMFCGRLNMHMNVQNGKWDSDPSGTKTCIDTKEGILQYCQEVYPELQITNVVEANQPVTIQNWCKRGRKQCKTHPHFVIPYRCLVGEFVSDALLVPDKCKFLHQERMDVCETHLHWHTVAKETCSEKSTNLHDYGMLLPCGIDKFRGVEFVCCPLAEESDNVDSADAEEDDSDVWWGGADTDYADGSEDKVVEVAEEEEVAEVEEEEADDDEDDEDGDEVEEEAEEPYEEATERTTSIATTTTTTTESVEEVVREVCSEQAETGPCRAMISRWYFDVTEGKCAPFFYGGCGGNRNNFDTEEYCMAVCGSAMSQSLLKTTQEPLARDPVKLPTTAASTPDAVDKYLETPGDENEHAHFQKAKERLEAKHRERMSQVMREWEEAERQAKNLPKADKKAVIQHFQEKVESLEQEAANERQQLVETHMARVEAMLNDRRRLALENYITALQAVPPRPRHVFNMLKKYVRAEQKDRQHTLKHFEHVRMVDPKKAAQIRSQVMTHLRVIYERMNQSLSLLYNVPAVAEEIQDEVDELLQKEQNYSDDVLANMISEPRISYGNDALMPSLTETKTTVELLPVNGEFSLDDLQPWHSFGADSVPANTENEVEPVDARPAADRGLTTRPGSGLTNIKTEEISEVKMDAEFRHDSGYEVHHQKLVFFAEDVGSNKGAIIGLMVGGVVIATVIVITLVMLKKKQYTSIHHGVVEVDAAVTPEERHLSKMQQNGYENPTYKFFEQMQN
Cholinesterase (Equus caballus), sequence (P81908 whole entry): as the sequence (P81908 whole entry) above

Broadly, the inhibition is the relative decrease from the control value, in per cent. `CN(Cc1ccccc1)Cc1ccc(NC(=O)/C=C/c2ccc([N+](=O)[O-])cc2)cc1`: the inhibition in series [1] came out at 35%; in series [3] it was 52.8%; in [4], 24%. Besides, in [2], the Activity is 0.8 equiv.
Consider `COc1ccc2[nH]cc(CCNC(C)=O)c2c1`, for which the result with PC-12 [5] was Active.
As for `Cc1c(C)c2c(c(C)c1O)CCC(C)(C(=O)O)O2` (configuration not stated), in the series on PC-12 [5], the result was Active.
What is called Papp is the rate of passage across a membrane or cell layer, normalised by area and donor concentration. A low value points to poor permeation. By IC50 is commonly meant the concentration needed to halve the response being measured. Higher therefore signals a need for much substance. With `CN(Cc1ccccc1)Cc1ccc(NC(=O)/C=C/c2ccc(O)c(O)c2)cc1`, the Activity in [6] was 274 nm; in the series on PC-12 [8], “Non-Toxic”; in series [19], 245 nm; in series [2] it was 4.24 equiv. Moreover, the inhibition result (in series [7]; at Acetylcholinesterase [20]) was “Active” throughout. The result (with PC-12 [9]; in [13]; in the series on Mus musculus [15]; with Mus musculus [21]; in series [23]) was Active. In addition, in series [10], the Papp at 16 h, 50 ug/mL is 5.34 ×10⁻⁶ cm/s. The inhibition in series [11] amounted to 87.4%; in series [3] it was 56.2%. Also, the IC50 is 9.72 µM on Cholinesterase [12], 8.01 µM against Cholinesterase [16], 4.64 µM against Acetylcholinesterase [17] and 5.42 µM against Acetylcholinesterase [24]. In addition, the Activity (mole fraction) in series [14] is 0.67. Moreover, the Ratio IC50 in [18] turned out to be 2.1. Moreover, the outcome in series [22] was inactive.
With `CN(Cc1ccccc1)Cc1ccc(NC(=O)/C=C/c2ccc(Cl)cc2)cc1`, the figures for the inhibition in [1], in series [3] and in series [4] were 41%, 58.6% and 32%, respectively. Also, the Activity in [2] worked out at 0.82 equiv.
In turn, `CCN(CC)CCCC(C)Nc1ccnc2cc(Cl)ccc12` (configuration not stated) had an inhibition in [11] of 48.8%.
